Data from ChEMBL document CHEMBL1134117, “Synthesis of substituted 5[H]phenanthridin-6-ones as potent poly(ADP-ribose)polymerase-1 (PARP1) inhibitors” (Bioorg Med Chem Lett, 2001).

target: Poly [ADP-ribose] polymerase 1 (Homo sapiens, UniProt P09874); assay: Inhibitory concentration against purified recombinant human Poly (ADP-ribose) polymerase 1
Sequence (P09874 whole entry): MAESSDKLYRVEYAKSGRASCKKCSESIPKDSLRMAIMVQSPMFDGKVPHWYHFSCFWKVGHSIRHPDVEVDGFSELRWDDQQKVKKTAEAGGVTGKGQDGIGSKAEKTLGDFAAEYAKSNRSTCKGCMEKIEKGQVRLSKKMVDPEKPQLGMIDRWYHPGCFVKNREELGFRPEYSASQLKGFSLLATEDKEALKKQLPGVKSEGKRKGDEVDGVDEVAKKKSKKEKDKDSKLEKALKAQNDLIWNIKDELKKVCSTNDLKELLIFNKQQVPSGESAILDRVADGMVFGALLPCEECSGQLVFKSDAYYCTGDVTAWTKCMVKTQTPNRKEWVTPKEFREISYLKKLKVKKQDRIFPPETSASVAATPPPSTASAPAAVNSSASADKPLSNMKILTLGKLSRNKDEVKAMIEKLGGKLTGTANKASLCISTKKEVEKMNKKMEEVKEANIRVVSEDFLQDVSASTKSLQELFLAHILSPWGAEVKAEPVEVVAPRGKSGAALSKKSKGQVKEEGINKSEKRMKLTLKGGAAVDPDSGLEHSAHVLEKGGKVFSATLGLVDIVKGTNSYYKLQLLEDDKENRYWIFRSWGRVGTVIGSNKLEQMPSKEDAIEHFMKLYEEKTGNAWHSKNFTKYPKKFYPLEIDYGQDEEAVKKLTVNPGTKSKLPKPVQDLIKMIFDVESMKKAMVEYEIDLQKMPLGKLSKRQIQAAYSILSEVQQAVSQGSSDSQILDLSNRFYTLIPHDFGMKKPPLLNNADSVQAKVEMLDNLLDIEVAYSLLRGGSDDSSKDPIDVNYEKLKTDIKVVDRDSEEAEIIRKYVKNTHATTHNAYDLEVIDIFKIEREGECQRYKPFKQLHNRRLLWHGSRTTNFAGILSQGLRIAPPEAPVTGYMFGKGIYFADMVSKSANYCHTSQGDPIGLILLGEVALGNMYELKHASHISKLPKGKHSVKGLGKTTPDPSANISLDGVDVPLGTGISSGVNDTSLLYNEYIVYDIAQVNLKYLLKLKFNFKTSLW

`Nc1ccc2[nH]c(=O)c3ccccc3c2c1` and `O=c1[nH]c2ccc([N+](=O)[O-])cc2c2ccccc12` are within 1.5-fold of each other in IC50: 180 nM for the first, 156 nM for the second.

Going from `Cc1cccc2c(O)nc3cc(F)ccc3c12` to `O=C(O)c1cccc2c(O)nc3ccccc3c12`, the IC50 rises from 92 nM to over 60000 nM.

Going from `O=c1[nH]c2ccccc2c2ccccc12` to `O=C(O)c1ccc2c(c1)[nH]c(=O)c1ccccc12`, the IC50 falls from 520 nM to 57 nM (9.1-fold). The second is the more potent here.

Compared with `Nc1cc2[nH]c(=O)c3ccccc3c2cc1N`, `O=c1[nH]c2cc(S(=O)(=O)O)ccc2c2ccc(F)cc12` is 18-fold lower in IC50: 180 nM for the first, 10 nM for the second.

First: O=S(=O)(O)c1ccc2c(c1)nc(O)c1cc(S(=O)(=O)O)ccc12
Second: Cc1cccc2c(=O)[nH]c3cc(C(F)(F)F)c([N+](=O)[O-])cc3c12
The IC50 of the first is higher: over 100000 nM for the first, 136 nM for the second.
